Results as given in patent publication US20220289732A1, “HETEROCYCLIC WDR5 INHIBITORS AS ANTI-CANCER COMPOUNDS” (NOVARTIS AG, priority 2019, published 2022).

How the values were obtained:
[1] = biological target: wild type MLL1 four-member complex (MLL1-4C) (Homo sapiens, UniProt P61964); assay: MLL1 LC-MS assay (SAH production); type: biochemical; conditions: read-out: (b) MLL LCMS Peptide Val.v.1 Qualified AC50
Procedure: The compounds of the present disclosure were serially and separately diluted 3-fold in DMSO to obtain a total of eight or twelve concentrations. Then the test compounds at each concentration (120 nL of each) were transferred by Mosquito into white Proxiplate plus 384-well microplate (PerkinElmer). Solutions (6 μL) of 60 nM wild type MLL1 four-member complex (MLL1-4C) and 5 μM SAM in the reaction buffer (20 mM Tris-HCl, pH8.0, 0.01% Tween 20, 1 mM DTT, 10 mM MgCl2, 0.01% BSA) were added to the wells that were then incubated with the test compound for 20 min. A 6 μL solution of 20 μM of the peptide substrate H3K4me0 (histone H3[1-21]-Biotin) in the reaction buffer was added to initiate each reaction. The final components in the reaction solution include 30 nM MLL1-4C, 2.5 μM SAM, and 10 μM H3K4me0 with varying concentration of the compounds. A positive control consisted of 30 nM MLL1-4C, 2.5 μM SAM, and 10 μM substrate in the absence of the test compound, and a negative control consisted of 2.5 μM SAM, and 10 μM substrate only. Each reaction was incubated at rt for 120 min, then stopped by addition of 3 μL per of quench solution (2.5% TFA with 320 nM d4-SAH). The reaction mixture was centrifuged (Eppendorf centrifuge 5810, Rotor A-4-62) for 2 min at 2000 rmp. The SAH production from the enzymatic assays were monitored by LC-MS/MS on an API 4000 triple quadrupole mass spec with Turbolon Spray (Applied Biosystem) coupled with Prominenece UFLC (Shimazu). The level of SAH production were then normalized based on the values coming from the positive and negative controls to give percent enzyme activities. The data were then fit to a dose response equation using the program Helios (Novartis) to get the IC50 values of the test compound. Helios is a Novartis in-house assay data analysis software using the methods described by Normolle, D. P., Statistics in Medicine, 12:2025-2042 (1993); Formenko, I. et al., Computer Methods and programs in Biomedicine, 82, 31-37 (2006); Sebaugh, J. L., Pharmaceutical Statistics, 10:128-134 (2011); Kelly, C. et al., Biometrics, 46(4):1071-1085 (1990); and Kahm, M, et al., Journal of Statistical Software, 33(7):(2010) (grofit: Fitting Biological Growth Curves with R, pages 1-21, available at http://www.jstatsoft.org/).

[2] = system: MV4-11 cells; assay: MV4-11 6-day cell growth CTG (CellTiter-Glo) assay; type: cell-based; conditions: Homo sapiens, MV4-11, 144 h, 6 days, read-out: (c) MLL/WDR5 cell proliferation assay//MLL/WDR5 proliferation MV4:11 Qualified AC50
Procedure: MV4-11 6-Day Cell Growth CTG (CellTiter-Glo) Assay
Acute myeloid leukemia cell MV4-11 (ATCC® CRL-9591™) was cultured with RPMI 1640 medium (Thermo Fisher Scientific, cat #11875) supplemented with 10% FBS (Thermo Fisher Scientific, cat #10099141) in humidified incubator at 37° C., 5% CO2. To assess the effect of WDR5 inhibitor on cell growth, the compound of the present invention was dissolved in DMSO and serially diluted at 1:3 for 12 points starting from 10 mM then 200 nL for the replicate of each dose per well was dispensed to Viewplate-384 Black (Perkin Elmer). Exponentially growing MV4-11 cells were seeded at the density of 300 cells per well in 40 μL to the plate, so the final compound working concentration starts from 50 μM. After 6 days, 40 μL CellTiter-Glo (Promega, cat #G7573) was added into the cell culture well and luminescence was read with Envision (Perkin Elmer) to determine the viable cells. The percentage inhibition was calculated against the samples treated with DMSO only and the data were used for dose response curve fitting in GraphPad Prism to get the IC50 of representative compound of present invention, which reflects the inhibition of WDR5 activity in the proliferation of MV4;11.

[3] = biological target: WDR5 (Homo sapiens, UniProt P61964); assay: WDR5 HTRF binding assay; conditions: read-out: (a) WDR5 HTRF Pep Val v.1[Inhibitor/IC50]Qualified AC50
Procedure: The compounds were serially diluted 3-fold in DMSO to obtain a total of twelve concentrations. Then the test compounds at each concentration (90 nL of each) were transferred by Mosquito in the white Proxiplate plus 384-well microplate (Perkin Elmer). The assay mixture (typical 9 μL) containing 6 nM WDR5 and 20 nM Biotin-MLL1 WIN peptide (3762-3773) in the assay buffer (25 mM Hepes, pH7.5, 0.05% Tween 20, 2 mM DTT, 100 mM NaCl, 0.1% BSA) were added to the wells. For counter assay, a 9 μL solution of 15 nM Biotin-PEG-His peptide was added into the wells. After 20 min incubation at rt, a 3 μL detection solution containing 14 μg/ml Phycolink Streptavidin Allophycocyanin (Prozyme), 2 nM Anti-His-Eu (PerkinElmer) in assay buffer was then added. After 1 hr incubation, the plate was read in the EnVision reader (PerkinElmer) using the HTRF protocol (The protocol set-up: Lance/Delfia dual enhancer mirror, excitation at 320 UV2 (TRF), emission at APC665, 2nd emission at EuropiμM 615). HTRF signals were normalized based on the reading coming from the positive (maximum signal control) and negative controls (minimum signal control) to give percentage of activities left. The data were then fit to a dose response equation using the program Helios (Novartis) to get the IC50 values. Helios is a Novartis in-house assay data analysis software using the methods described by Normolle, D. P., Statistics in Medicine, 12:2025-2042 (1993); Formenko, I. et al., Computer Methods and programs in Biomedicine, 82, 31-37 (2006); Sebaugh, J. L., Pharmaceutical Statistics, 10:128-134 (2011); Kelly, C. et al., Biometrics, 46(4):1071-1085 (1990); and Kahm, M, et al., Journal of Statistical Software, 33(7):(2010) (grofit: Fitting Biological Growth Curves with R, pages 1-21, available at http://www.jstatsoft.org/).

Compound	AC50 [1]	AC50 [2]	IC50 [3]
CCOc1cc([C@H](C)N2CCc3c(cc(Cn4ccnc4C)cc3-c3cn(C)nc3C)C2=O)ncc1C(N)=O (single isomer, unassigned) [Example 268]	10 to 1000 nM	10 to 1000 nM	< 10 nM
CCOc1cc([C@H](C)N2CCc3c(cc(Cn4ccnc4C)cc3-c3cc(CN(C)C)nn3C)C2=O)ncc1C#N (single isomer, unassigned) [Example 270]	10 to 1000 nM	10 to 1000 nM	< 10 nM
CCOc1cc([C@H](C)N2CCc3c(cc(Cn4ccnc4C)cc3-c3cn(C)c(=O)cc3C(F)(F)F)C2=O)ncc1F (single isomer, unassigned) [Example 278]	10 to 1000 nM	< 10 nM	< 10 nM
CCOc1cc([C@H](C)N2CCc3c(cc(Cn4ccnc4C)cc3-c3cn(C)nc3C)C2=O)nnc1C#N (single isomer, unassigned) [Example 303]	< 10 nM	< 10 nM	< 10 nM
CCOc1cc(C(C)N2CCc3c(Br)cc(Cn4ccnc4NC)cc3C2=O)ncc1C#N (stereo not drawn) [Example 1, 6-(1-(5-bromo-7-((2-(methylamino)-1H-imidazol-1-yl)methyl)-1-oxo-3,4 dihydroisoquinolin-2(1H)-yl)ethyl)-4-ethoxynicotinonitrile]	10 to 1000 nM	10 to 1000 nM	10 to 1000 nM
CCOc1cc(CN2CCc3c(Br)cc(Cn4ccnc4NC)cc3C2=O)cnc1C#N [Example 2, 5-((5-bromo-7-((2-(methylamino)-1H-imidazol-1-yl)methyl)-1-oxo-3,4-dihydroisoquinolin-2(1H)-yl)methyl)-3-ethoxypicolinonitrile]	10 to 1000 nM	10 to 1000 nM	10 to 1000 nM
CCOc1cc([C@H](C)N2CCc3c(Cl)cc(Cn4ccnc4NC)cc3C2=O)cnc1C#N [Example 4, (S)-5-(1-(5-chloro-7-((2-(methylamino)-1H-imidazol-1-yl)methyl)-1-oxo-3,4-dihydroisoquinolin-2(1H)-yl)ethyl)-3-ethoxypicolinonitrile]	10 to 1000 nM	10 to 1000 nM	10 to 1000 nM
CCOc1cc([C@H](C)N2CCc3c(Cl)cc(Cn4ccnc4NC)cc3C2=O)ncc1F [Example 5, (S)-5-chloro-2-(1-(4-ethoxy-5-fluoropyridin-2-yl)ethyl)-7-((2-(methylamino)-1H-imidazol-1-yl)methyl)-3,4-dihydroisoquinolin-1(2H)-one]	10 to 1000 nM	10 to 1000 nM	10 to 1000 nM
CCOc1cc(CN2CCc3c(Cl)cc(Cn4ccnc4NC)cc3C2=O)cnc1C#N [Example 6, 5-((5-chloro-7-((2-(methylamino)-1H-imidazol-1-yl)methyl)-1-oxo-3,4-dihydroisoquinolin-2(1H)-yl)methyl)-3-ethoxypicolinonitrile]	10 to 1000 nM	10 to 1000 nM	10 to 1000 nM
CNc1nccn1Cc1cc(CN2CCOCC2)c2c(c1)C(=O)N([C@@H](C)c1cnc(F)c(OC)c1)CC2 [Example 8, (S)-2-(1-(6-fluoro-5-methoxypyridin-3-yl)ethyl)-7-((2-(methylamino)-1H-imidazol-1-yl)methyl)-5-(morpholinomethyl)-3,4-dihydroisoquinolin-1(2H)-one]	10 to 1000 nM	10 to 1000 nM	< 10 nM
CCOc1cc([C@H](C)N2CCc3c(CN4CC[C@H](F)C4)cc(Cn4ccnc4NC)cc3C2=O)ncc1C#N [Example 9, 4-ethoxy-6-((S)-1-(5-(((S)-3-fluoropyrrolidin-1-yl)methyl)-7-((2-(methylamino)-1H-imidazol-1-yl)methyl)-1-oxo-3,4-dihydroisoquinolin-2(1H)-yl)ethyl)nicotinonitrile]	10 to 1000 nM	10 to 1000 nM	< 10 nM
CCOc1cc([C@H](C)N2CCc3c(CN(C)C4COC4)cc(Cn4ccnc4NC)cc3C2=O)ncc1F [Example 10, (S)-2-(1-(4-ethoxy-5-fluoropyridin-2-yl)ethyl)-5-((methyl(oxetan-3-yl)amino)methyl)-7-((2-(methylamino)-1H-imidazol-1-yl)methyl)-3,4-dihydroisoquinolin-1(2H)-one]	10 to 1000 nM	10 to 1000 nM	< 10 nM
CCOc1cc([C@H](C)N2CCc3c(CN4CC[C@@H](F)C4)cc(Cn4ccnc4NC)cc3C2=O)ncc1C#N [Example 11, 4-ethoxy-6-((S)-1-(5-(((R)-3-fluoropyrrolidin-1-yl)methyl)-7-((2-(methylamino)-1H-imidazol-1-yl)methyl)-1-oxo-3,4-dihydroisoquinolin-2(1H)-yl)ethyl)nicotinonitrile]	10 to 1000 nM	10 to 1000 nM	< 10 nM
CCOc1cc([C@H](C)N2CCc3c(CN4CCOCC4)cc(Cn4ccnc4NC)cc3C2=O)ncc1C#N [Example 12, (S)-4-ethoxy-6-(1-(7-((2-(methylamino)-1H-imidazol-1-yl)methyl)-5-(morpholinomethyl)-1-oxo-3,4-dihydroisoquinolin-2(1H)-yl)ethyl)nicotinonitrile]	10 to 1000 nM	10 to 1000 nM	10 to 1000 nM
CNc1nccn1Cc1cc(CN(C)C2COC2)c2c(c1)C(=O)N([C@@H](C)c1cc(OC)c(F)cn1)CC2 [Example 13]	10 to 1000 nM	10 to 1000 nM	10 to 1000 nM
CCOc1cc([C@H](C)N2CCc3c(CN4CC[C@@H](F)C4)cc(Cn4ccnc4NC)cc3C2=O)ncc1F [Example 14, 2-((S)-1-(4-ethoxy-5-fluoropyridin-2-yl)ethyl)-5-(((R)-3-fluoropyrrolidin-1-yl)methyl)-7-((2-(methylamino)-1H-imidazol-1-yl)methyl)-3,4-dihydroisoquinolin-1(2H)-one]	10 to 1000 nM	10 to 1000 nM	10 to 1000 nM
